Test results reported in patent US20100048479A1, “ADRENAL GRK2 ACTIVITY AS A THERAPEUTIC TARGET FOR HEART FAILURE” (priority 2006, published 2010).
Read-outs that look alike come from different tables or passages of the source.

Tests used:
[1] = system: chromaffin cells
Protocol: (§1) Plasma and in vitro catecholamine secretion measurements: Plasma Epi and NE levels were determined by ELISA, performed on rat and mouse plasma samples with the BI-CAT EIA kit from ALPCO Diagnostics (Windham, N.H.). In vitro Epi and NE secretion in the supernatant of cultured chromaffin cells was measured by use of the same ELISA kit essentially as described previously by Wilson & Kirschner, 3J. Neurosci. 1971-78 (1983). In vitro catecholamine (CA) secretion measurements. Briefly, 48 hrs post-isolation, chromaffin cells were placed in a balanced salts buffer and stimulated with 20 μM nicotine for 30 min, following pre-treatment with 10 μM UK14304 (Sigma-Aldrich) or vehicle for 30 min. At the end of nicotine treatment, the supernatant was collected for determination of its CA content. Adenoviral-transfected cells were infected 48 hrs post-isolation and cells were subjected to the various treatments 24 hrs after transfection (72 hrs post-isolation). In all experiments, the supernatants used for CA measurements were collected from cultures of equal numbers of cells as determined by cell counting and post-experiment protein determination in harvested cells.
Following this period, in vitro CA secretion assays were performed using nicotine to activate nicotinic cholinergic receptors (the physiological stimulus for CA secretion from these cells) and the α2AR agonist UK14304 to activate these negative feedback receptors.

[2] = system: α2AR; settings: MOXSE and MOXCON trials; cited from earlier work
[3] = system: α2AR; assay: Moxonidine treatment of HF rats, plasma catecholamine levels; type: in vivo, rat; settings: 7d of moxonidine 1 mg/kg/d intraperitoneally
Protocol: In vivo adrenal gene delivery: All animal procedures and experiments were performed in accordance with the guidelines of the Institutional Animal Care and Use Committee of Thomas Jefferson University. For adrenal-specific in vivo gene delivery in HF rats, adenovirus was delivered directly to the adrenal gland using a surgical technique. Rats with chronic heart failure ten weeks after myocardial infarction were directly injected with virus into both of their adrenal glands, immediately after a transversal cut of the median abdomen was made and ventral visceral organs temporarily placed on the side so as to expose the retroperitoneal region. […] HF rats were treated with either AdβARKct or AdGFP as a control. […] For moxonidine treatment of HF rats, systemic administration of 1.0 mg/kg/d of moxonidine (delivered via a daily intraperitoneal injection) was initiated at the time of in vivo adrenal gene delivery and continued for seven days, at which time plasma was taken for determination of circulating catecholamine levels (see below).
as §1, with “Adenoviral-transfected cells were infected 48 hrs post-isolation and cells were subjected to the various treatments 24 hrs after transfection (72 hrs post-isolation).” left out

[4] = system: α2AR; settings: HF animal models and human heart failure patients; cited from earlier work
[5] = system: CSQ/Tg mouse-derived chromaffin cells; assay: In vitro catecholamine secretion from chromaffin cells of CSQ/Tg and NLC mice (nicotine stimulus, UK14304 pre-treatment); type: cell-based; settings: for Inhibition of Epi and NE secretion in response to nicotine: 10 μM UK14304 pre-treatment; for EC50: Mus musculus, n=6
Description: (§2) Experimental Procedures: Adrenal chromaffin cell isolation and culture: The animal models of heart failure: mice with myocardial-targeted overexpression of calsequestrin (CSQ/Tg mice); male Sprague-Dawley rats (450-500 g; Harlan) ten weeks post-cryo-myocardial infarction (cryo-MI) (HF rats); as well as CSQ/βARKct mice, were previously established and characterized. Harding et al., 98 P.N.A.S. USA, 5809-14 (2001); Most et al., 114 J. Clin. Invest. 1550-63 (2004). Nontransgenic littermate mice were used as healthy controls for the mouse heart failure model. Chromaffin cells were isolated from adrenal glands excised from these animals and cultured as described previously in Brede et al., 2003. […] Cells from separate isolations were used in each experiment.
as §1

[6] = system: rat primary chromaffin cells; assay: βarr1 membrane recruitment in rat primary chromaffin cells; type: cell-based; settings: cells infected with GFP, 10 μM UK14304 for 8 min
Protocol: β-arrestin membrane recruitment: βarr1 recruitment to rat primary chromaffin cell membranes or whole adrenal gland-derived plasma membranes was measured by western blotting in membrane preparations, essentially as described previously in Perry et al., 198 Science 834-36 (2002). Cultured chromaffin cells, isolated from rat adrenal glands, were transfected with the indicated recombinant adenoviruses and 24 hrs post-infection they were treated with vehicle or 10 μM UK14304 for 8 min. The cells were then harvested and plasma membranes prepared by hypotonic lysis with 5 mM TrisCl, 5 mM EDTA, pH 7.4, and subsequent ultracentrifugation at 47.000×g. The membranes were resuspended in RIPA buffer, containing Triton 0.5% and protease inhibitors, and then fractions of membrane lysates containing 50 μg of protein were loaded for SDS-PAGE, and subsequently western blotted with an antibody against rat βarr1 and −2 (A1CT40, a generous gift from Dr. R. J. Lefkowitz, Duke Univ. Medical Center, Durham, N.C.). Plasma membrane preparations from whole adrenal glands excised from in vivo infected rats were obtained by the same procedure. Blotting for actin in the same membrane lysates was also performed as loading control. βarr1 membrane recruitment was quantified as the densitometric ratio of βarr1 and actin bands detected in each sample.

[7] = system: HF rat chromaffin cells; assay: In vitro catecholamine secretion from chromaffin cells of HF and sham rats (nicotine stimulus, UK14304 pre-treatment); type: cell-based; settings: for EC50: Rattus norvegicus
Description: as §2, §1

[8] = system: chromaffin cells isolated from HF or sham-operated rats; settings: 10 μM UK14304 pretreatment
Protocol: Calibration and assessment of intracellular Ca^2+ transients in chromaffin cells in response to K^+-induced depolarization were performed essentially as described. Brede, 2003; Zhou & Neher, 469 J. Physiol. 245-73 (1993). Changes in intracellular Ca^2+ were monitored fluorimetrically using the Ca^2+-sensitive probe Fura 2 (1 μM). The recording system included a Zeiss, Axiovert S170 inverted microscope fitted with epifluorescence (monochromator TILL Polychrome II, Germany). Cells were alternatively illuminated at 340 nm and 380 nm at a frequency of 140 Hz. Emission for each excitation wavelength was filtered at 510 nm and digitized using interface (EPC9, HEKA, Germany). […] Chromaffin cells isolated from HF or sham-operated rats were exposed to 10 μM UK14304 or vehicle for 30 min in culture medium containing a fixed Ca^2+ concentration of 2.5 mM, and then 150 mM KCl was added to induce depolarization. Only round-shaped, healthy, and attached chromaffin cells with a resting 340/380 ratio lower than 1 were selected for measurement.

CN1CCCC1c1cccnc1 (stereo not shown) [nicotine]
Nicotine-stimulated Epi and NE secretion ([1]; chromaffin cells from AdGFP-, AdGRK2- and AdβARKct-treated rats, 20 μM nicotine): to an equal extent

COc1nc(C)nc(Cl)c1N=C1NCCN1 [moxonidine]
Reason for early termination of the trials [2]: excessive adverse effects and fatalities | SNS activity in heart failure patients [2]: significant reduction of SNS activity | Circulating Epi levels ([3]; adrenal AdGFP-treated HF rats): virtually no effect | Circulating NEpi levels ([3]; adrenal AdGFP-treated HF rats): lowered | NE and Epi plasma levels ([3]; adrenal AdβARKct-treated HF rats): further significantly reduced

Clc1cccc(Cl)c1N=C1NCCN1 [clonidine]
Sympatholytic response to clonidine administration [4]: diminished sympatholytic responses

Brc1c(NC2=NCCN2)ccc2nccnc12 [UK14304]
Inhibition of Epi and NE secretion in response to nicotine ([5]; CSQ/Tg mouse-derived chromaffin cells): completely fails to inhibit | EC50 ([5]; CSQ/Tg mouse-derived chromaffin cells, AdGFP cells, mean±s.e.m., read-out: EC50 of UK14304-mediated inhibition of Epi secretion): 5.5 ± 1.3 µM | EC50 ([5]; CSQ/Tg mouse-derived chromaffin cells, AdGFP cells, read-out: EC50 of UK14304-mediated inhibition of NEpi secretion): 8 ± 2.63 µM | EC50 ([5]; CSQ/Tg mouse-derived chromaffin cells, AdβARKct cells, read-out: EC50 of UK14304-mediated inhibition of Epi secretion): 0.2 ± 0.0015 µM | EC50 ([5]; CSQ/Tg mouse-derived chromaffin cells, AdβARKct cells, read-out: EC50 of UK14304-mediated inhibition of NEpi secretion): 0.05 ± 0.0014 µM | Inhibition of Epi and NE secretion in response to nicotine ([5]; control (NLC) cells): attenuates catecholamine release | Catecholamine secretion, UK14304 pre-treatment alone ([5]; without nicotine): no effect | Ability of UK14304 to inhibit CA secretion ([1]; cells from AdβARKct-treated rats, 10 μM UK14304): normal and similar to control cells | Effect of UK14304 on CA secretion in response to nicotine ([1]; chromaffin cells from AdGRK2-treated rats, 10 μM UK14304): lost | Effect of UK14304 on CA secretion in response to nicotine ([1]; chromaffin cells from control AdGFP-treated rats, 10 μM UK14304): abolishes CA secretion | βarr1 recruitment to chromaffin cell membranes in response to α2AR stimulation [6]: large βarr1 recruitment | Inhibition of secretion of both catecholamines in response to nicotine ([7]; 10 μM UK14304 pre-treatment): fails to inhibit secretion | EC50 ([7]; AdGFP cells, n=6, read-out: EC50 of UK14304-mediated inhibition of Epi secretion): 6.4 ± 2.5 µM | EC50 ([7]; AdGFP cells, n=6, read-out: EC50 of UK14304-mediated inhibition of NEpi secretion): 0.68 ± 0.0251 µM | EC50 ([7]; AdβARKct cells, n=6, read-out: EC50 of UK14304-mediated inhibition of Epi secretion): 0.1 ± 0.0052 µM | EC50 ([7]; AdβARKct cells, n=6, read-out: EC50 of UK14304-mediated inhibition of NEpi secretion): 0.11 ± 0.0012 µM | Depolarization-induced Ca2+ entry ([8]; HF chromaffin cells): fails to significantly alter | Depolarization-induced Ca2+ entry ([8]; control (sham) cells): significantly inhibited
